Each structure is given as a SMILES string. Bounds are passed on as bounds.

The results in this text go back to patent publication US20160046597A1, “RORC2 INHIBITORS AND METHODS OF USE THEREOF” (PFIZER INC., priority 2013, published 2016).

This assay concerns the target T1, RORC2 ligand binding domain (6-His-RORC2 LBD) (Homo sapiens, UniProt P51449).
T1 construct: made in house; host or cells: E. coli
T1 sequence (P51449 269-508 limits assumed): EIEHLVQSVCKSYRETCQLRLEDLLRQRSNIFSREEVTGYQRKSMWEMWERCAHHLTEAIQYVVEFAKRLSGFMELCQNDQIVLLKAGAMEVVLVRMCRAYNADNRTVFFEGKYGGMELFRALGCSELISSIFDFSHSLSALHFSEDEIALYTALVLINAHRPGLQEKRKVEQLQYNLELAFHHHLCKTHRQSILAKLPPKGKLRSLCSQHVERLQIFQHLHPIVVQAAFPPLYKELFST
Nature of the assay: Co-activator recruitment by TR-FRET (RORC2 FRET). In kind it is biochemical. Conditions: 6.3 nM RORC2 LBD, 200 nM SRC1-2 coactivator peptide, 3 hours room temperature. The text has this:
The activity of compound of the invention can be determined by a co-activator recruitment by TR-FRET (time-resolved fluorescence resonance energy transfer) assay. […] Due to the long lasting fluorescence emission of Europium, the non-specific, short-lived fluorescence is time-resolved (TR) from the fluorescence of interest. Inhibitors of the interaction of receptor and coactivator peptide are detected by a decrease in TR-FRET signal.
Specifically, in one embodiment the aforementioned assay was performed as outlined below. The assay was carried out in black polystyrene, 384-well plates in a total assay volume of 50.5 μL. The assay buffer contained 50 mM TRIS-HCL pH 7.5, 1 mM NaCl, 2 mM MgCl2, 0.5 mg/mL bovine serum albumin, and 5 mM dithiothreitol.
The compound `COc1ccc(S(=O)(=O)Nc2ccc3c(c2)c(C2CCN(C(=O)C4CCCC4)CC2)cn3C)cc1` [Example 75] gave an IC50 of 14.7 nM. This counts as double-digit nanomolar.
In the case of `Cn1cc(C2CCN(C(=O)C3CCCOC3)CC2)c2cc(NC(=O)c3cc(C#N)ccn3)ccc21` (centres unmarked) [Example 15, 4-cyano-N-{1-methyl-3-[1-(tetrahydro-2H-pyran-3-ylcarbonyl)piperidin-4-yl]-1H-indol-5-yl}pyridine-2-carboxamide] it was 15.9 nM.
In the case of `CC(C)c1cnc(N2CCC(c3cn(C)c4ccc(NC(=O)c5cccc(C#N)c5)cc34)CC2)nc1` [Example 82, 3-cyano-N-(3-[1-(5-isopropylpyrimidin-2-yl)piperidin-4-yl]-1-methyl-1H-indol-5-yl)benzamide] it was 3960 nM; in that of `Cn1cc(C2CCN(C(=O)C3CCCC3)CC2)c2cc(NS(=O)(=O)c3ccc(F)cc3)ccc21` [Example 64, N-(3-(1-(cyclopentylcarbonyl)piperidin-4-yl)-1-methyl-1H-indol-5-yl)-4-fluorobenzenesulfonamide], 5.8 nM.
In the case of `CN(CCC#N)C(=O)Nc1ccc2c(c1)c(C1CCN(C(=O)C3CCCC3)CC1)cn2C` [Example 59, 1-(2-cyanoethyl)-3-{3-[1-(cyclopentylcarbonyl)piperidin-4-yl]-1-methyl-1H-indol-5-yl}-1-methylurea] it was 330 nM; in that of `Cn1cc(C2CCN(C(=O)C3CCCC3)CC2)c2cc(NS(=O)(=O)c3cnc(N)nc3)ccc21` [Example 65, 2-amino-N-{3-[1-(cyclopentylcarbonyl)piperidin-4-yl]-1-methyl-1H-indol-5-yl}pyrimidine-5-sulfonamide], 37.3 nM.
Turning to `Cn1cc(C2CCN(C(=O)C[C@@H](O)C(F)(F)F)CC2)c2cc(NS(=O)(=O)c3ccc(F)cc3)ccc21` [Example 91, (R)-4-fluoro-N-(1-methyl-3-(1-(4,4,4-trifluoro-3-hydroxybutanoyl)piperidin-4-yl)-1H-indol-5-yl)benzenesulfonamide], the IC50 was determined as 9.8 nM.
As for `Cn1cc(C2CCN(C(=O)C3CCOCC3)CC2)c2cc(NC(=O)c3cc(C#N)ccn3)ccc21` [Example 19, 4-cyano-N-{1-methyl-3-[1-(tetrahydro-2H-pyran-4-ylcarbonyl)piperidin-4-yl]-1H-indol-5-yl}pyridine-2-carboxamide], the half-maximal inhibitory concentration (IC50) came to 40.6 nM.
Compound `Cn1cc(C2CCN(C(=O)c3ncccn3)CC2)c2cc(NC(=O)c3cc(C#N)ccn3)ccc21` [Example 24, 4-cyano-N-{1-methyl-3-[1-(pyrimidin-2-ylcarbonyl)piperidin-4-yl]-1H-indol-5-yl}pyridine-2-carboxamide] gave an IC50 of 246 nM.
The compound `Cn1nccc1C(=O)N1CCC(c2cn(C)c3ccc(NC(=O)c4cc(C#N)ccn4)cc23)CC1` [Example 11, 4-cyano-N-(1-methyl-3-{1-[(1-methyl-1H-pyrazol-5-yl)carbonyl]piperidin-4-yl}-1H-indol-5-yl)pyridine-2-carboxamide] displayed an IC50 of 34.6 nM.
With `COc1ccc(C#N)cc1C(=O)Nc1ccc2[nH]cc(C3CCN(C(=O)C4CCCC4)CC3)c2c1` [Example 40, 5-cyano-N-{3-[1-(cyclopentylcarbonyl)piperidin-4-yl]-1H-indol-5-yl}-2-methoxybenzamide] the figure was 380 nM; with `N#Cc1cccc(C(=O)Nc2ccc3[nH]cc(C4CCN(S(=O)(=O)C5CCCC5)CC4)c3c2)c1` [Example 86, 3-cyano-N-(3-(1-(cyclopentylsulfonyl)piperidin-4-yl)-1H-indol-5-yl)benzamide], over 20000 nM.
Turning to `Cn1cc(C2CCN(C(=O)C3CCCC3)CC2)c2cc(NS(=O)(=O)c3ccccc3)ccc21` [Example 68, N-{3-[1-(cyclopentylcarbonyl)piperidin-4-yl]-1-methyl-1H-indol-5-yl}benzenesulfonamide], the IC50 amounted to 6.5 nM.
With `CC(C)c1cnc(N2CCC(c3cn(C)c4ccc(NC(=O)c5cccc(C#N)c5)cc34)CC2)nc1` [Example 80] the figure was 259 nM; with `COCCCS(=O)(=O)Nc1ccc2c(c1)c(C1CCN(C(=O)C3CCCC3)CC1)cn2C` [Example 74, N-{3-[1-(cyclopentylcarbonyl)piperidin-4-yl]-1-methyl-1H-indol-5-yl}-3-methoxypropane-1-sulfonamide], 53 nM; with `Cn1cc(C2CCN(C(=O)CCC(F)(F)F)CC2)c2cc(NC(=O)c3cc(C#N)ccn3)ccc21` [Example 30, 4-cyano-N-{1-methyl-3-[1-(4,4,4-trifluorobutanoyl)piperidin-4-yl]-1H-indol-5-yl}pyridine-2-carboxamide], 14.3 nM.
As to `Cc1cnc(N2CCC(c3cn(C)c4ccc(NC(=O)c5cccc(C#N)c5)cc34)CC2)nc1` [Example 81, 3-cyano-N-(1-methyl-3-(1-(5-methylpyrimidin-2-yl)piperidin-4-yl)-1H-indol-5-yl)benzamide], the IC50 was found to be 335 nM. Against the preceding compound, the IC50 is about 23-fold higher.
In the case of `CC(C)C(O)C(=O)N1CCC(c2cn(C)c3ccc(NC(=O)c4cc(C#N)ccn4)cc23)CC1` (centres unmarked) [Example 28, 4-cyano-N-{3-[1-(2-hydroxy-3-methylbutanoyl)piperidin-4-yl]-1-methyl-1H-indol-5-yl}pyridine-2-carboxamide] it was 88.1 nM.
With `Cn1cc(C2CCN(C(=O)C3CCCC3)CC2)c2cc(NS(=O)(=O)Cc3ccccc3)ccc21` [Example 77, N-{3-[1-(cyclopentylcarbonyl)piperidin-4-yl]-1-methyl-1H-indol-5-yl}-1-phenylmethanesulfonamide] the figure was 50.5 nM.
In the case of `Cn1cc(C2CCN(C(=O)c3cnccn3)CC2)c2cc(NC(=O)c3cc(C#N)ccn3)ccc21` [Example 26, 4-cyano-N-{1-methyl-3-[1-(pyrazin-2-ylcarbonyl)piperidin-4-yl]-1H-indol-5-yl}pyridine-2-carboxamide] it was 87 nM; in that of `CNc1ncccc1C(=O)N1CCC(c2cn(C)c3ccc(NC(=O)c4cc(C#N)ccn4)cc23)CC1` [Example 16, 4-cyano-N-[1-methyl-3-(1-{[2-(methylamino)pyridin-3-yl]carbonyl}piperidin-4-yl)-1H-indol-5-yl]pyridine-2-carboxamide], 132 nM.
Consider `O=C(Nc1ccc2[nH]cc(C3CCN(C(=O)C4CCCC4)CC3)c2c1)c1cccc2ncsc12` [Example 49, N-{3-[1-(cyclopentylcarbonyl)piperidin-4-yl]-1H-indol-5-yl}-1,3-benzothiazole-7-carboxamide], for which the IC50 was 1380 nM.
Take `Cn1cc(C2CCN(C(=O)CC3CC3)CC2)c2cc(NC(=O)c3cc(C#N)ccn3)ccc21` [Example 33, 4-cyano-N-{3-[1-(cyclopropylacetyl)piperidin-4-yl]-1-methyl-1H-indol-5-yl}pyridine-2-carboxamide]: the half-inhibitory concentration (IC50) was found to be 7.6 nM.
With `Cn1cc(C2CCN(C(=O)C(C)(C)CO)CC2)c2cc(NC(=O)c3cc(C#N)ccn3)ccc21` [Example 22, 4-cyano-N-{3-[1-(3-hydroxy-2,2-dimethylpropanoyl)piperidin-4-yl]-1-methyl-1H-indol-5-yl}pyridine-2-carboxamide] the figure was 384 nM; with `CC1CCN(S(=O)(=O)Nc2ccc3c(c2)c(C2CCN(C(=O)C4CCCC4)CC2)cn3C)CC1` [Example 93, N-(3-(1-(cyclopentanecarbonyl)piperidin-4-yl)-1-methyl-1H-indol-5-yl)-4-methylpiperidine-1-sulfonamide], 4.9 nM.
With `Cn1cc(C2CCN(C(=O)C3CCCC3)CC2)c2cc(NS(=O)(=O)c3cccnc3)ccc21` [Example 76, N-{3-[1-(cyclopentylcarbonyl)piperidin-4-yl]-1-methyl-1H-indol-5-yl}pyridine-3-sulfonamide] the figure was 22.9 nM; with `Cc1cc(C(=O)N2CCC(c3cn(C)c4ccc(NC(=O)c5cc(C#N)ccn5)cc34)CC2)no1` [Example 10, 4-cyano-N-(1-methyl-3-{1-[(5-methylisoxazol-3-yl)carbonyl]piperidin-4-yl}-1H-indol-5-yl)pyridine-2-carboxamide], 42.9 nM.
In the case of `Cn1cc(C2CCN(C(=O)C3CCCC3)CC2)c2cc(NC(=O)N3CCCC(C#N)C3)ccc21` (centres unmarked) [Example 58, 3-cyano-N-(3-(1-(cyclopentanecarbonyl)piperidin-4-yl)-1-methyl-1H-indol-5-yl)piperidine-1-carboxamide] it was 256 nM; in that of `Cn1cnc2cc(C(=O)Nc3ccc4[nH]cc(C5CCN(C(=O)C6CCCC6)CC5)c4c3)ccc21` [Example 52, N-{3-[1-(cyclopentylcarbonyl)piperidin-4-yl]-1H-indol-5-yl}-1-methyl-1H-benzimidazole-5-carboxamide], 1110 nM.
As for `Cn1cc(C2CCN(C(=O)C3CCCC3)CC2)c2cc(NS(=O)(=O)C3CCCCC3)ccc21` [Example 70, N-{3-[1-(cyclopentylcarbonyl)piperidin-4-yl]-1-methyl-1H-indol-5-yl}cyclohexanesulfonamide], the IC50 amounted to 7.2 nM.
`Cn1cc(C2CCN(C(=O)C3CCCC3)C2)c2cc(NC(=O)c3cccc(C#N)c3)ccc21` (centres unmarked) [Example 79, 3-cyano-N-(3-(1-(cyclopentylcarbonyl)pyrrolidin-3-yl)-1-methyl-1H-indol-5-yl)benzamide] registered an IC50 of 199 nM.
In the case of `O=C(O)c1cccc(C(=O)Nc2ccc3[nH]cc(C4CCN(C(=O)C5CCCC5)CC4)c3c2)c1` [Example 48, 3-({3-[1-(cyclopentylcarbonyl)piperidin-4-yl]-1H-indol-5-yl}carbamoyl)benzoic acid] it was 211 nM.

The IC50 is the concentration at which inhibition is half-maximal.
